Experimental data reported in patent US10874743B2, “IRAK degraders and uses thereof” (Kymera Therapeutics, Inc., priority 2017, dated 2020).

Biological target: T1, IRAK4 (Homo sapiens, UniProt Q9NWZ3)
T1 sequence (Q9NWZ3 1-460): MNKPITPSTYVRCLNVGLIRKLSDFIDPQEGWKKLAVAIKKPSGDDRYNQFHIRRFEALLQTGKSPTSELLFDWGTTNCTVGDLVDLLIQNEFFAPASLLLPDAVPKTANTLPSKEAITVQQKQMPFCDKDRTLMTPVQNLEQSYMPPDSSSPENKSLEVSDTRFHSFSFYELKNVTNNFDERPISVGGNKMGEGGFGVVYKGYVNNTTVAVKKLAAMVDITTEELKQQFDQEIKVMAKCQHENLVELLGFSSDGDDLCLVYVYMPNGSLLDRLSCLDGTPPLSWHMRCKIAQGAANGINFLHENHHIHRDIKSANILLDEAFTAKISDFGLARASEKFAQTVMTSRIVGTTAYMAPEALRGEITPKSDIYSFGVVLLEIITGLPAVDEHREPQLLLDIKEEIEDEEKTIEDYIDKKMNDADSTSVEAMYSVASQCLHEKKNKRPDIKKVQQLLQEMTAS
Test: OCI-LY-10 degradation assay (western blot, % IRAK4 degraded after 4 hours)
Type: cell-based
Set-up: endogenous in cells; host or cells: OCI-LY10
Settings: OCI-LY10 cells, 4 hours; for OCI-LY10 % IRAK4 Degradation (0.01 uM): 0.01 uM compound; for OCI-LY10 % IRAK4 Degradation (0.1 uM): 0.1 uM compound; for OCI-LY10 % IRAK4 Degradation (1 uM): 1 uM compound
Procedure, shortened: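 IRAK4 loss after 4 h at 37° C was scored A (>50%), B (>20-50%) or C (<20%) from infrared western blots of RIPA lysates, 20-25 μg protein per lane. Compound was applied at 0.003-10 μM final to OCI-LY10 cells cultured in RPMI-1640 with 20% FBS and 55 μM 2-ME.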

Compound	OCI-LY10 % IRAK4 Degradation (0.01 uM)	OCI-LY10 % IRAK4 Degradation (0.1 uM)	OCI-LY10 % IRAK4 Degradation (1 uM)
O=C1CCC(N2C(=O)c3cccc(CCCNCCCCCNC(=O)c4ccc(-n5cc(NC(=O)c6coc(-c7ccnc(NCC8CC8)c7)n6)c(C(F)(F)F)n5)cc4)c3C2=O)C(=O)N1 (stereo not drawn) [I-221]	B (>20-50% degradation)	B (>20-50% degradation)	A (>50% degradation)
O=C1CCC(N2C(=O)c3cccc(NCCNCCOCCNC(=O)c4ccc(-n5cc(NC(=O)c6coc(-c7ccnc(NCC8CC8)c7)n6)c(C(F)(F)F)n5)cc4)c3C2=O)C(=O)N1 (stereo not drawn) [I-222]	A (>50% degradation)	A (>50% degradation)	A (>50% degradation)
CN(CCOCCOCCCc1cccc2c1C(=O)N(C1CCC(=O)NC1=O)C2=O)C(=O)c1ccc(-n2cc(NC(=O)c3coc(-c4ccncc4)n3)c(C(N)=O)n2)cc1 (stereo not drawn) [I-226]	B (>20-50% degradation)	A (>50% degradation)	A (>50% degradation)
CN(CCCCCCCCCc1cccc2c1C(=O)N(C1CCC(=O)NC1=O)C2=O)C(=O)c1ccc(-n2cc(NC(=O)c3coc(-c4ccnc(NCC5CC5)c4)n3)c(C(N)=O)n2)cc1 (stereo not drawn) [I-230]	C (<20% degradation)	C (<20% degradation)	C (<20% degradation)
NC(=O)c1nn(-c2ccc(C(=O)NCCOCCOCCOCCOCC#Cc3cccc4c3C(=O)N(C3CCC(=O)NC3=O)C4=O)cc2)cc1NC(=O)c1coc(-c2ccnc(NCC(F)(F)F)c2)n1 (stereo not drawn) [I-236]	C (<20% degradation)	B (>20-50% degradation)	A (>50% degradation)
NC(=O)c1nn(-c2ccc(C(=O)NCCOCCOCCOCCCc3cccc4c3CN(C3CCC(=O)NC3=O)C4=O)cc2)cc1NC(=O)c1coc(-c2ccnc(NCC3CC3)c2)n1 (stereo not drawn) [I-238]	C (<20% degradation)	B (>20-50% degradation)	A (>50% degradation)
NC(=O)c1nn(CCOCCOCCOCCNc2cccc3c2C(=O)N(C2CCC(=O)NC2=O)C3=O)cc1NC(=O)c1coc(-c2ccnc(NCC3CC3)c2)n1 (stereo not drawn) [I-239]	C (<20% degradation)	C (<20% degradation)	C (<20% degradation)
O=C1CCC(N2C(=O)c3cccc(CCCOCCOCCNC(=O)c4ccc(-n5cc(NC(=O)c6coc(-c7ccnc(NCC8CC8)c7)n6)c(C(F)F)n5)cc4)c3C2=O)C(=O)N1 (stereo not drawn) [I-244]	C (<20% degradation)	B (>20-50% degradation)	B (>20-50% degradation)

The next lines start with the values.

OCI-LY10 % IRAK4 Degradation (0.01 uM)	OCI-LY10 % IRAK4 Degradation (0.1 uM)	OCI-LY10 % IRAK4 Degradation (1 uM)	Compound
C (<20% degradation)	C (<20% degradation)	C (<20% degradation)	CN(CCOCCCc1cccc2c1C(=O)N(C1CCC(=O)NC1=O)C2=O)C(=O)c1ccc(-n2cc(NC(=O)c3coc(-c4ccnc(NCC5CC5)c4)n3)c(C(N)=O)n2)cc1 (stereo not drawn) [I-229]
C (<20% degradation)	A (>50% degradation)	A (>50% degradation)	NC(=O)c1nn(-c2ccc(C(=O)NCCOCCOCCCc3cccc4c3C(=O)N(C3CCC(=O)NC3=O)C4=O)cc2)cc1NC(=O)c1coc(-c2ccnc(NCC(F)(F)F)c2)n1 (stereo not drawn) [I-233]
C (<20% degradation)	B (>20-50% degradation)	B (>20-50% degradation)	NC(=O)c1nn(-c2ccc(C(=O)NCCOCCCc3cccc4c3C(=O)N(C3CCC(=O)NC3=O)C4=O)cc2)cc1NC(=O)c1coc(-c2ccnc(NCC(F)(F)F)c2)n1 (stereo not drawn) [I-234]
C (<20% degradation)	C (<20% degradation)	C (<20% degradation)	O=C1CCC(N2C(=O)c3cccc(CCCOCCNC(=O)c4ccc(-n5cc(NC(=O)c6coc(-c7ccnc(NCC8CC8)c7)n6)c(C(F)F)n5)cc4)c3C2=O)C(=O)N1 (stereo not drawn) [I-243]
